From patent US10689363B2 (Merck Patent GmbH, priority 2017, dated 2020)
Where two headings read alike, the source gives them in different places.

What was measured:
[1] = Thermodynamic solubility (24 h, 37° C.) in FaSSIF medium or USP Phosphate buffer; assay type: physicochemical; details: 24 h; for Thermodynamic solubility FaSSIF pH 6.5: FaSSIF pH 6.5, 37° C.; for Thermodynamic solubility PBS buffer 7.4: USP Phosphate buffer pH 7.4, 37° C.
[2] = Mini-dissolution in FaSSIF / FeSSIF medium at 37° C.; assay type: physicochemical; details: for Dissolution levels in FaSSIF pH 6.5: FaSSIF pH 6.5, 37° C.; for Dissolution levels in FeSSIF pH 5.0: FeSSIF pH 5.0, 37° C.
Protocol: All dispersions were agitated at 37° C. for up to 2 hours. At defined time intervals (30 min. 60 min, 120 min), sample aliquots of homogeneous dispersions were withdrawn by a syringe, and filtrated via syringe filter adapters (PTFE, 0.45 μm).

[3] = Water Vapour Sorption isotherm (25° C., DVS-Intrinsic), hygroscopicity acc. to Ph. Eur. 5.11.; assay type: physicochemical; details: for water uptake levels: 25° C.
Protocol: (§1) (based on multiple measurements on different samples of form A2). […] DSC scan of form A2 was acquired on a Mettler-Toledo DSC 821 with a heating rate of 50 K/min, using nitrogen purge gas at 50 mL/min. TGA scan of form A2 was acquired on a Mettler-Toledo TGA 851 with a heating rate of 5 K/min, using nitrogen purge gas at 50 mL/min. […] Eur. Criteria (section 5.11.). Water Vapour Sorption isotherm was acquired on a DVS-Intrinsic system from SMS.
(based on multiple measurements on different samples of form NF5). […] Eur. Criteria (section 5.11.). […] Water Vapour Sorption isotherm was acquired on a DVS-Intrinsic system from SMS.
(based on multiple measurements on one sample of form NF6). […] Eur. Criteria (section 5.11.). […] Water Vapour Sorption isotherm was acquired on a DVS-Intrinsic system from SMS.
Eur. Criteria (section 5.11.). […] Water Vapour Sorption isotherm was acquired on a DVS-Intrinsic system from SMS.
as §1, with “Other physical properties of” for “(based on multiple measurements on different samples of”, “form Fumarate-NF1 include the following: ^1H-NMR spectroscopic data reveal a API:Fumarate molar ratio of 1:1.” for “form A2).”, “form Fumarate-NF1” for “form A2”, “of 5” for “of 50”, “5.11.). […]” for “5.11.).”
Other physical properties of form Maleate-NF1 include the following: ^1H-NMR spectroscopic data reveal a API:Maleate molar ratio of 1:1. […] DSC scan of form Maleate-NF1 was acquired on a Mettler-Toledo DSC 821 with a heating rate of 5 K/min, using nitrogen purge gas at 50 mL/min. TGA scan of form Maleate-NF1 was acquired on a Mettler-Toledo TGA 851 with a heating rate of 5 K/min, using nitrogen purge gas at 50 mL/min. […] Form Maleate-NF1 can be classified as non-hygroscopic according to Ph. Eur. Criteria (section 5.11.). […] Water Vapour Sorption isotherm was acquired on a DVS-Intrinsic system from SMS.
Other physical properties of form Citrate-NF1 include the following: ^1H-NMR spectroscopic data reveal a API:Citrate molar ratio of 1:1. […] DSC scan of form Citrate-NF1 was acquired on a Mettler-Toledo DSC 821 with a heating rate of 5 K/min, using nitrogen purge gas at 50 mL/min. TGA scan of form Citrate-NF1 was acquired on a Mettler-Toledo TGA 851 with a heating rate of 5 K/min, using nitrogen purge gas at 50 mL/min. […] Eur. Criteria (section 5.11.). […] Water Vapour Sorption isotherm was acquired on a DVS-Intrinsic system from SMS.
(based on multiple measurements on different samples of form A1). […] DSC scan of form A1 was acquired on a Mettler-Toledo DSC 821 with a heating rate of 50 K/min, using nitrogen purge gas at 50 mL/min. TGA scan of form A1 was acquired on a Mettler-Toledo TGA 851 with a heating rate of 5 K/min, using nitrogen purge gas at 50 mL/min. […] Eur. Criteria (section 5.11.). […] Water Vapour Sorption isotherm was acquired on a DVS-Intrinsic system from SMS. […] Dissolution level of form A1 in Fasted-State Simulated Intestinal Fluid [FaSSIF, pH 6.5] at 37° C. was determined to be approx. 36 μg/mL (after 2 h), and dissolution level of form A1 in Fed-State Simulated Intestinal Fluid [FeSSIF, pH 5.0] at 37° C. was determined to be approx. 214 μg/mL (after 2 h), respectively (see example 11).
All forms were characterized according to standard methods which are found in e.g. Rolf Hilfiker, ‘Polymorphism in the Pharmaceutical Industry’. Wiley-VCH. Weinheim 2006 (Chapter 6: X-Ray Diffraction. Chapter 6: Vibrational Spectroscopy. Chapter 3: Thermal Analysis, Chapter 9: Water Vapour Sorption, and references therein); and H. G. Brittain, ‘Polymorphism in Pharmaceutical Solids. Vol. 95. Marcel Dekker Inc., New York 1999 (Chapter 6 and references therein).

[4] = pH 6.5
[5] = relative humidity range 0-80% rh
[6] = relative humidity range 90-98% rh

Thermodynamic solubility FaSSIF pH 6.5 [1] | Thermodynamic solubility FaSSIF pH 6.5 ([1]; listed as Free base form A1) [μg/mL] | Thermodynamic solubility PBS buffer 7.4 [1] | Thermodynamic solubility PBS buffer 7.4 ([1]; listed as Free base form A1) [µg/mL] | Dissolution levels in FaSSIF pH 6.5 ([2]; 30 min) [μg/mL] | Dissolution levels in FaSSIF pH 6.5 ([2]; 60 min) [μg/mL] | Dissolution levels in FaSSIF pH 6.5 ([2]; 120 min (2 h)) | Dissolution levels in FaSSIF pH 6.5 ([2]; 120 min (2 h), listed as Free base form Al) [μg/mL] | Dissolution levels in FeSSIF pH 5.0 ([2]; 30 min) [μg/mL] | Dissolution levels in FeSSIF pH 5.0 ([2]; 60 min) [μg/mL] | Dissolution levels in FeSSIF pH 5.0 ([2]; 120 min (2 h)) | Dissolution levels in FeSSIF pH 5.0 ([2]; 120 min (2 h), listed as Free base form A1) [μg/mL] | hygroscopicity classification according to Ph. Eur. Criteria (section 5.11.) [3] | water uptake levels [3, 5] [wt %] | water uptake levels [3, 6] [wt %] | hygroscopicity classification according to Ph. Eur. Criteria (section 5.11.) ([3]; listed as NF5) | water uptake levels ([3]; relative humidity level of 98% rh) [wt %] | water uptake levels ([3]; relative humidity range 0-90% rh) [wt %] | kinetic solubility levels (4 h), factor higher vs form A1 [4] | hygroscopicity classification according to Ph. Eur. Criteria (section 5.11.) ([3]; listed as NF6) | SMILES
approx. 21 μg/mL | 21 | approx. 14 μg/mL | 14 | 25 | 33 | approx. 36 μg/mL | 36 | 190 | 205 | approx. 214 μg/mL | 214 | slightly hygroscopic | ≤ 1 | ≤ 2 |  |  |  |  |  | C=CC(=O)N1CCC(CNc2ncnc(N)c2-c2ccc(Oc3ccccc3)cc2)CC1 [form A1, 1-(4-{[6-Amino-5-(4-phenoxy-phenyl)-pyrimidin-4-ylamino]-methyl}-piperidin-1-yl)-propenone]
 |  |  |  |  |  |  |  |  |  |  |  | slightly hygroscopic |  |  | Slightly hygroscopic | ≤ 2 | ≤ 1 | ~1.5 |  | C=CC(=O)N1CCC(CNc2ncnc(N)c2-c2ccc(Oc3ccccc3)cc2)CC1 [form NF5, 1-(4-{[6-Amino-5-(4-phenoxy-phenyl)-pyrimidin-4-ylamino]-methyl}-piperidin-1-yl)-propenone]
 |  |  |  |  |  |  |  |  |  |  |  | slightly hygroscopic | ≤ 2 | ≤ 3 |  |  |  | ~3 | Slightly hygroscopic | C=CC(=O)N1CCC(CNc2ncnc(N)c2-c2ccc(Oc3ccccc3)cc2)CC1 [form NF6, 1-(4-{[6-Amino-5-(4-phenoxy-phenyl)-pyrimidin-4-ylamino]-methyl}-piperidin-1-yl)-propenone]
